Data as given in US4568545A, “Thrombolytic agent” (Amano Seiyaku Kabushiki Kaisha, priority 1982, dated 1986).

Tested on: thrombi formed from blood of a healthy adult
Experiment: Thrombolytic activity by the Chandler's loop method
Format: biochemical, human
Details: 60 minutes, 37° C.
Description: Determination of the thrombolytic activity by the Chandler's loop method: the test solution and control solution were prepared by dissolving the protease and urokinase (a product by Otsuka Seiyaku Co.), respectively, in a physiological saline solution. […] The reference solution for the blank test was the physiological saline solution.
Formation of thrombi and measurement of the dissolution thereof were performed in the following manner. Thus, 0.8 ml of the above obtained fresh blood admixed with sodium citrate and 0.1 ml of a 3% aqueous solution of calcium chloride as CaCl2 ·2H2 O were introduced into a tube of polyvinyl chloride resin having an inner diameter of 3 mm and a length of 250 mm and the ends of the tube were connected to each other to form a loop which was put coaxially on a turntable inclined at an angle of 60° and rotated at 37° C. for 30 minutes at a velocity of 17 r.p.m. to form thrombi therein. Thereafter, 0.1 ml of one of the protease solutions, the urokinase solution or the reference solution was introduced into the loop which was rotated under the same conditions as above for 60 minutes. The thrombi remaining in the tube were then taken out and, after fixing with a Bouin's reagent, i.e. a solution prepared by adding 25 ml of a commercially available formalin solution and 5 ml of glacial acetic acid to 75 ml of a saturated aqueous solution of picric acid, the weight of the wet thrombi was measured.

## Urokinase
Concentration in blood 50 Iu/ml blood
  % Thrombolysis: 8.0%
Concentration in blood 100 Iu/ml blood
  % Thrombolysis: 39.8%
Concentration in blood 150 Iu/ml blood
  % Thrombolysis: 49.7%
Concentration in blood 200 Iu/ml blood
  % Thrombolysis: 60.3%
Concentration in blood 250 Iu/ml blood
  % Thrombolysis: 66.4%
